# Source: patent publication US20250171437A1 (Agios Pharmaceuticals,Inc., priority 2022, published 2025)
# Target: T1, human PAH with the R408W mutation (A375 R408W cells) (Homo sapiens, UniProt P00439, R408W)
# T1 construct: expressed in transfected cells
# T1 sequence (P00439 1-452 R408W): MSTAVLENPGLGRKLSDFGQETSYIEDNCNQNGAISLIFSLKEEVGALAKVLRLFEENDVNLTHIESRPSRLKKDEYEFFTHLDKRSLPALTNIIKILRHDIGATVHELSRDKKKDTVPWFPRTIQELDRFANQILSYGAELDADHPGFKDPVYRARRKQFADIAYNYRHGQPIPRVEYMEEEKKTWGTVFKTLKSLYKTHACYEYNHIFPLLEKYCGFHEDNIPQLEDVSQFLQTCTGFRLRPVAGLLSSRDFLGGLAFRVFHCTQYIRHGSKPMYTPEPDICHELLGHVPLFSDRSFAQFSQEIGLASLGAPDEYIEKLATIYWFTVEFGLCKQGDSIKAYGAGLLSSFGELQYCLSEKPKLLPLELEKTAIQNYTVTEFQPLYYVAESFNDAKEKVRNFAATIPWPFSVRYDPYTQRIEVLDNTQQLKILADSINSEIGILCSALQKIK
# Test: Cell Based Phenylalanine Flux Assay
# Conditions: A375 R408W cells; 24 hrs with compound, then 20 μM sepiapterin and 800 μM 13C9,15N-Phenylalanine for 4 hours; 13C-Tyrosine by LC-MS; average where tested multiple times
# In short: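 A375 cells stably expressing lentiviral human PAH R408W were treated with compounds (10-point 2-fold dilutions, 0.5% DMSO, duplicate) for 24 h at 37 °C. Then 20 μM sepiapterin and 800 μM 13C9,15N-Phe were added for 4 h; media 13C-Tyr was measured by LC-MS to give AC50.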
row,Compound,AC50 [µM]
1,"Cc1ccc2c(C(=O)N3CCc4[nH]cnc4[C@@H]3c3nc4c(F)cccc4o3)cnn2c1 [Example 538, (R)-(4-(4-fluorobenzo[d]oxazol-2-yl)-6,7-dihydro-1H-imidazo[4,5-c]pyridin-5(4H)-yl)(6-methylpyrazolo[1,5-a]pyridin-3-yl)methanone]",1 to 5
2,"Cc1ncoc1C(=O)N1CCc2[nH]cnc2[C@@H]1c1nc2c(F)ccc(F)c2o1 [Example 808, (R)-(4-(4,7-difluorobenzo[d]oxazol-2-yl)-6,7-dihydro-1H-imidazo[4,5-c]pyridin-5(4H)-yl)(4-methyloxazol-5-yl)methanone]",1 to 5
3,"O=C(c1oc(-c2ccccn2)nc1C1CC1)N1CCc2[nH]cnc2[C@@H]1c1nc2cc(F)ccc2o1 [Example 44, (R)-(4-cyclopropyl-2-(pyridin-2-yl)oxazol-5-yl)(4-(5-fluorobenzo[d]oxazol-2-yl)-6,7-dihydro-1H-imidazo[4,5-c]pyridin-5(4H)-yl)methanone]",1 to 5
4,"O=C(CC1(O)CCC1)N1CCc2[nH]cnc2[C@H]1c1nc2cc(F)ccc2o1 [Example 55, (S)-1-(4-(5-fluorobenzo[d]oxazol-2-yl)-6,7-dihydro-1H-imidazo[4,5-c]pyridin-5(4H)-yl)-2-(1-hydroxycyclobutyl)ethanone]",0.5 to 1
5,"O=C(c1cnn2cc(N3CCC4(CC3)CC4)ccc12)N1CCc2[nH]cnc2[C@@H]1c1nc2c(F)cccc2o1 [Example 506, (R)-(6-(6-azaspiro[2.5]octan-6-yl)pyrazolo[1,5-a]pyridin-3-yl)(4-(4-fluorobenzo[d]oxazol-2-yl)-6,7-dihydro-1H-imidazo[4,5-c]pyridin-5(4H)-yl)methanone]",1 to 5
6,"O=C(c1nnc(-c2ccc(F)cc2F)o1)N1CCc2[nH]cnc2[C@H]1c1nc2cc(F)ccc2o1 [Example 84, (S)-(5-(2,4-difluorophenyl)-1,3,4-oxadiazol-2-yl)(4-(5-fluorobenzo[d]oxazol-2-yl)-6,7-dihydro-1H-imidazo[4,5-c]pyridin-5(4H)-yl)methanone]",≤ 0.5
7,"Cc1ccc2c(C(=O)N3CCc4[nH]cnc4[C@@H]3c3nc4cc(F)ccc4o3)cnn2c1 [Example 20, (R)-(4-(5-fluorobenzo[d]oxazol-2-yl)-6,7-dihydro-1H-imidazo[4,5-c]pyridin-5(4H)-yl)(6-methylpyrazolo[1,5-a]pyridin-3-yl)methanone]",≥ 5
8,"CC(C)n1nccc1C(=O)N1CCc2[nH]cnc2[C@@H]1c1nc2ccccc2o1 [Example 751, (R)-(4-(benzo[d]oxazol-2-yl)-6,7-dihydro-1H-imidazo[4,5-c]pyridin-5(4H)-yl)(1-isopropyl-1H-pyrazol-5-yl)methanone]",1 to 5
9,"Cn1cc(-c2nnc(C(=O)N3CCc4[nH]cnc4[C@H]3c3nc4cc(F)cc(F)c4o3)o2)cn1 [Example 665, (S)-(4-(5,7-difluorobenzo[d]oxazol-2-yl)-6,7-dihydro-1H-imidazo[4,5-c]pyridin-5(4H)-yl)(5-(1-methyl-1H-pyrazol-4-yl)-1,3,4-oxadiazol-2-yl)methanone]",≤ 0.5
10,"Cn1cncc1-c1nc(C(F)F)c(C(=O)N2CCc3[nH]cnc3[C@H]2c2nc3ccccc3o2)o1 [Example 764, (S)-(4-(benzo[d]oxazol-2-yl)-6,7-dihydro-1H-imidazo[4,5-c]pyridin-5(4H)-yl)(4-(difluoromethyl)-2-(1-methyl-1H-imidazol-5-yl)oxazol-5-yl)methanone]",≤ 0.5
11,"Cc1nc(-c2cnn(C)c2)oc1C(=O)N1CCc2[nH]cnc2[C@H]1c1nc2cccc(F)c2o1 [Example 596, (S)-(4-(7-fluorobenzo[d]oxazol-2-yl)-6,7-dihydro-1H-imidazo[4,5-c]pyridin-5(4H)-yl)(4-methyl-2-(1-methyl-1H-pyrazol-4-yl)oxazol-5-yl)methanone]",≤ 0.5
12,"(R)-(4-(5,7-difluorobenzo[d]oxazol-2-yl)-6,7-dihydro-1H-imidazo[4,5-c]pyridin-5(4H)-yl)(5-(1-methyl-1H-pyrazol-4-yl)-1,3,4-oxadiazol-2-yl)methanone [Example 610]",1 to 5
13,"Cn1nccc1-c1nnc(C(=O)N2CCc3[nH]cnc3[C@@H]2c2nc3cc(F)ccc3o2)o1 [Example 132, (R)-(4-(5-fluorobenzo[d]oxazol-2-yl)-6,7-dihydro-1H-imidazo[4,5-c]pyridin-5(4H)-yl)(5-(1-methyl-1H-pyrazol-5-yl)-1,3,4-oxadiazol-2-yl)methanone]",1 to 5
14,"CC(C)(O)c1nc(C(F)F)c(C(=O)N2CCc3[nH]cnc3[C@@H]2c2nc3cc(C(F)(F)F)ccc3o2)o1 [Example 328, (R)-(4-(difluoromethyl)-2-(2-hydroxypropan-2-yl)oxazol-5-yl)(4-(5-(trifluoromethyl)benzo[d]oxazol-2-yl)-6,7-dihydro-1H-imidazo[4,5-c]pyridin-5(4H)-yl)methanone]",≤ 0.5
15,"CC(C)(O)c1nc(C(F)F)c(C(=O)N2CCc3[nH]cnc3[C@@H]2c2nc3c(Cl)cccc3o2)o1 [Example 436, [(4R)-4-(4-chloro-1,3-benzoxazol-2-yl)-1,4,6,7-tetrahydroimidazo[4,5-c]pyridin-5-yl]-[4-(difluoromethyl)-2-(1-hydroxy-1-methyl-ethyl)oxazol-5-yl]methanone]",0.5 to 1
16,"Cn1ccc(-c2nnc(C(=O)N3CCc4[nH]cnc4[C@H]3c3nc4c(F)cccc4o3)o2)n1 [Example 379, (S)-(4-(4-fluorobenzo[d]oxazol-2-yl)-1,4,6,7-tetrahydro-5H-imidazo[4,5-c]pyridin-5-yl)(5-(1-methyl-1H-pyrazol-3-yl)-1,3,4-oxadiazol-2-yl)methanone]",≤ 0.5

# Further lines, results first:
row,AC50 [µM],Compound
1,0.5 to 1,"Cc1nc(C(C)(C)O)oc1C(=O)N1CCc2[nH]cnc2[C@H]1c1nc2cccc(F)c2o1 [Example 268, (S)-(4-(7-fluorobenzo[d]oxazol-2-yl)-6,7-dihydro-1H-imidazo[4,5-c]pyridin-5(4H)-yl)(2-(2-hydroxypropan-2-yl)-4-methyloxazol-5-yl)methanone]"
2,0.5 to 1,"CN(C)Cc1cn2ncc(C(=O)N3CCc4[nH]cnc4[C@H]3c3nc4cc(F)ccc4o3)c2cc1Cl [Example 203, (S)-(5-chloro-6-((dimethylamino)methyl)pyrazolo[1,5-a]pyridin-3-yl)(4-(5-fluorobenzo[d]oxazol-2-yl)-6,7-dihydro-1H-imidazo[4,5-c]pyridin-5(4H)-yl)methanonee]"
3,1 to 5,"O=C(c1nnc(-c2ccccn2)o1)N1Cc2[nH]cnc2[C@H]1c1nc2ccccc2o1 [Example 937, (S)-(4-(benzo[d]oxazol-2-yl)-4,6-dihydropyrrolo[3,4-d]imidazol-5(1H)-yl)(5-(pyridin-2-yl)-1,3,4-oxadiazol-2-yl)methanone]"
4,1 to 5,"Cc1ccc2oc([C@H]3c4nc[nH]c4CCN3C(=O)c3nnc(-c4ccccn4)o3)nc2c1 [Example 98, (R)-(4-(5-methylbenzo[d]oxazol-2-yl)-6,7-dihydro-1H-imidazo[4,5-c]pyridin-5(4H)-yl)(5-(pyridin-2-yl)-1,3,4-oxadiazol-2-yl)methanone]"
5,1 to 5,"Cc1nc(C(=O)N2CCc3[nH]cnc3[C@@H]2c2nc3cccc(F)c3o2)n(C)n1 [Example 496, (R)-(1,3-dimethyl-1H-1,2,4-triazol-5-yl)(4-(7-fluorobenzo[d]oxazol-2-yl)-6,7-dihydro-1H-imidazo[4,5-c]pyridin-5(4H)-yl)methanone]"

# Same assay, conditions: A375 cells expressing R408W PAH; 24 hrs with compound, then 20 μM sepiapterin and 800 μM 13C9,15N-Phenylalanine for 4 hours; 13C-Tyrosine by LC-MS; average where tested multiple times
row,Compound,AC50 [µM]
1,Cn1nc(C(C)(C)C)nc1C(=O)N1CCc2[nH]cnc2C1c1nc2cccc(F)c2o1 (stereo not drawn),1 to 5
2,O=C(c1cnco1)N1CCc2[nH]cnc2C1c1nc2cc(F)ccc2o1 (stereo not drawn),1 to 5
3,Cn1nc(C(F)F)nc1C(=O)N1CCc2[nH]cnc2C1c1nc2ccc(F)c(F)c2o1 (stereo not drawn),1 to 5
4,Cc1nnc(C(=O)N2CCc3[nH]cnc3C2c2nc3cc(F)ccc3o2)o1 (stereo not drawn),≥ 5
5,Cc1n[nH]cc1-c1nnc(C(=O)N2CCc3[nH]cnc3C2c2nc3cc(F)ccc3o2)o1 (stereo not drawn),1 to 5
6,Cn1ncnc1C(=O)N1CCc2[nH]cnc2C1c1nc2c(F)ccc(F)c2o1 (stereo not drawn),1 to 5
7,"CC(=O)Cn1cc(C(=O)N2CCc3[nH]cnc3[C@H]2c2nc3cc(F)ccc3o2)cn1 (single isomer, unassigned)",≥ 5

# Now from value to compound:
row,AC50 [µM],Compound
1,1 to 5,Cn1nc(C(F)(F)F)nc1C(=O)N1CCc2[nH]cnc2C1c1nc2c(F)cccc2o1 (stereo not drawn)
2,1 to 5,Cc1nc(C(C)(C)N(C)C)oc1C(=O)N1CCc2[nH]cnc2C1c1nc2cc(F)ccc2o1 (stereo not drawn)
3,1 to 5,Cc1ccc2oc(C3c4nc[nH]c4CCN3C(=O)c3nc(C)nn3C)nc2c1 (stereo not drawn)
4,1 to 5,O=C(c1cnco1)N1CCc2[nH]cnc2C1c1nc2c(F)cc(F)cc2o1 (stereo not drawn)
5,≥ 5,Cc1nc(C(C)O)oc1C(=O)N1CCc2[nH]cnc2C1c1nc2cc(F)ccc2o1 (stereo not drawn)
6,≥ 5,Fc1ccc2oc(C3c4nc[nH]c4CCN3Cc3ocnc3C(F)F)nc2c1 (stereo not drawn)
7,1 to 5,COc1ccc2oc(C3c4nc[nH]c4CCN3C(=O)c3cnco3)nc2c1 (stereo not drawn)
8,1 to 5,O=C(C1CC1)N1CCc2[nH]cnc2C1c1nc2cc(F)ccc2o1 (stereo not drawn)
